Test results reported in US20230265151A1, “GIP/GLP1 CO-AGONIST COMPOUNDS” (priority 2020, published 2023).
Where two headings read alike, the source gives them in different places.

Columns and labels:
Assay type in all cases: cell-based
[1] = target: T1, hGIPR (Homo sapiens, UniProt P48546); test: Functional cAMP formation (HTRF) in HEK-293 clonal cells expressing hGIPR, 0.1% bovine casein, without or with 1.0% human serum albumin; conditions: for Emax: percent of maximal response to GIP(1-42)NH2; for EC50: cAMP
T1 construct: expressed in transfected cells
T1 sequence (P48546 22-466): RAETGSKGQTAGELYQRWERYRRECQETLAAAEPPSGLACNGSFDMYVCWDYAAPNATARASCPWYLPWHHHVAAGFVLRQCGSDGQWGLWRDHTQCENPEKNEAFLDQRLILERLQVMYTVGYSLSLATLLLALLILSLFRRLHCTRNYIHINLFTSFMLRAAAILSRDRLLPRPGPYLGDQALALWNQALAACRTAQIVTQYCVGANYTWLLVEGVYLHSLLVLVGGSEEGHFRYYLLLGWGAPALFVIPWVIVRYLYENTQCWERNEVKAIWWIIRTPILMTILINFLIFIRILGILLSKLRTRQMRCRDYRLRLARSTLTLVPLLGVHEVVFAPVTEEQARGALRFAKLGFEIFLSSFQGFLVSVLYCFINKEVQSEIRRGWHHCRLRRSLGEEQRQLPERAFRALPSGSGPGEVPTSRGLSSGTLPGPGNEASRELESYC
Outline: (§1)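 Cells were stimulated with peptide for 30 min at 37° C, then intracellular cAMP was measured by competitive HTRF (665/620 nm ratio) and converted to nM using a cAMP standard curve. Relative EC50 and Emax came from four-parameter logistic fits of percent maximal response against peptide concentration.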

[2] = target: T2, hGCGR (Homo sapiens, UniProt P47871); test: Functional cAMP formation (HTRF) in HEK-293 clonal cells expressing hGCGR, 0.1% bovine casein, without or with 1.0% human serum albumin; conditions: cAMP, 37° C.
T2 construct: expressed in transfected cells
Outline: as §1

[3] = target: hGLP-1R (Homo sapiens, UniProt P43220); test: Functional cAMP formation (HTRF) in HEK-293 clonal cells expressing hGLP-1R, 0.1% bovine casein, without or with 1.0% human serum albumin; set-up: expressed in transfected cells; conditions: for Emax: percent of maximal response to GLP-1(7-36)NH2; for EC50: cAMP
Outline: as §1

[4] = HEK293, cAMP, 37° C., 0.1% bovine casein and 1.0% human serum albumin, read-out: hGIPR Emax, % ± SEM
[5] = 37° C., 0.1% bovine casein and 1.0% human serum albumin, geometric mean (SEM, n), read-out: hGIPR EC50, nM (SEM, n)
[6] = 0.1% bovine casein (no human serum albumin), geometric mean, read-out: hGCGR EC50, nM (SEM, n)
[7] = 0.1% bovine casein and 1.0% human serum albumin, geometric mean (SEM, n), read-out: hGCGR EC50, nM (SEM, n)
[8] = HEK293, cAMP, 37° C., 0.1% bovine casein, arithmetic mean, read-out: hGLP-1R Emax, % ± SEM
[9] = 37° C., 0.1% bovine casein (no human serum albumin), geometric mean, read-out: hGLP-1R EC50, nM (SEM, n)
[10] = 37° C., 0.1% bovine casein (no human serum albumin), geometric mean, read-out: hGIPR EC50, nM (SEM, n)

Chain of hGLP-1R (P43220 24-463): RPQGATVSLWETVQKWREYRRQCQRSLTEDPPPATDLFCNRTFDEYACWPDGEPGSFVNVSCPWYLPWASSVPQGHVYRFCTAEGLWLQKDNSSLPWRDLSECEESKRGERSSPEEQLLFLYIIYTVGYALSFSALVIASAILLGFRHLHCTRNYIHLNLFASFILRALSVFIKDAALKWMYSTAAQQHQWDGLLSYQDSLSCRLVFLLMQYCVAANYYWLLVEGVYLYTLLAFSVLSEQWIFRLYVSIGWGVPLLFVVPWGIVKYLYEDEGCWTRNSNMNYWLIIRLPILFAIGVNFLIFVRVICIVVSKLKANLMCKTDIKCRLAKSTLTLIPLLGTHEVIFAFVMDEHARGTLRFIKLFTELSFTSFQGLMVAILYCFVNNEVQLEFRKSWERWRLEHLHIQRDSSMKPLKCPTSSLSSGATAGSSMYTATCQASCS
T2 sequence (P47871 26-477): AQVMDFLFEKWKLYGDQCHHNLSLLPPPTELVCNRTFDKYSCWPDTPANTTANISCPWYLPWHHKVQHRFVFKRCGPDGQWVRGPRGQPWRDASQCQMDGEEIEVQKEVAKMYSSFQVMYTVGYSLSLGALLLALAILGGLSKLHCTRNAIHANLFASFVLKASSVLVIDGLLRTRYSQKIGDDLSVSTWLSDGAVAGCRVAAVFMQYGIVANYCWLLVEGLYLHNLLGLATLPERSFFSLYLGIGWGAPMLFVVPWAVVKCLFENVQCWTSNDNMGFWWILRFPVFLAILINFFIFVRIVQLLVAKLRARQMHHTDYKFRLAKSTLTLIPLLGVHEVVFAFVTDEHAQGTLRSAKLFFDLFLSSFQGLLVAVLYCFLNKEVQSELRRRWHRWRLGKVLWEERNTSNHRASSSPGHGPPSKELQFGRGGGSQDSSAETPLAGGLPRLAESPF

Compound | Emax ([1]; HEK293, read-out: hGIPR Emax, % ± SEM, cAMP, 37° C., 0.1% bovine casein and 1.0% human serum albumin) | Emax ([1]; HEK293, read-out: hGIPR Emax, % ± SEM, cAMP, 37° C., 0.1% bovine casein, arithmetic mean) | EC50 ([1]; hGIPR EC50, nM (SEM, n), 37° C., 0.1% bovine casein (no human serum albumin), geometric mean) | EC50 ([2]; hGCGR EC50, nM (SEM, n), 0.1% bovine casein (no human serum albumin), geometric mean) | EC50 ([2]; hGCGR EC50, nM (SEM, n), 0.1% bovine casein and 1.0% human serum albumin, geometric mean (SEM, n)) | Emax ([3]; HEK293, read-out: hGLP-1R Emax, % ± SEM, cAMP, 37° C., 0.1% bovine casein and 1.0% human serum albumin) | EC50 ([3]; hGLP-1R EC50, nM (SEM, n), 37° C., 0.1% bovine casein (no human serum albumin), geometric mean) | Emax [1, 4] | EC50 [1, 5] | EC50 [2, 6] | EC50 [2, 7] | Emax [3, 8] | EC50 [3, 9] | EC50 ([3]; 37° C., 0.1% bovine casein and 1.0% human serum albumin, geometric mean (SEM, n), read-out: hGLP-1R EC50, nM (SEM, n)) | Emax ([1]; HEK293, cAMP, 37° C., 0.1% bovine casein, arithmetic mean, read-out: hGIPR Emax, % ± SEM) | EC50 [1, 10] | Emax ([3]; HEK293, cAMP, 37° C., 0.1% bovine casein and 1.0% human serum albumin, read-out: hGLP-1R Emax, % ± SEM)
CCCC[C@H](NC(=O)[C@H](CC(=O)O)NC(=O)[C@H](CO)NC(=O)[C@@H](NC(=O)[C@](C)(Cc1ccccc1F)NC(=O)[C@@H](NC(=O)CNC(=O)[C@H](CCC(=O)O)NC(=O)C(C)(C)NC(=O)[C@@H](N)Cc1ccc(O)cc1)[C@@H](C)O)[C@@H](C)O)C(=O)N[C@@H](CO)C(=O)N[C@H](C(=O)N[C@@](C)(CC(C)C)C(=O)N[C@@H](CC(C)C)C(=O)N[C@@H](CC(=O)O)C(=O)N[C@@H](CCCN)C(=O)N[C@H](C(=O)N[C@@H](C)C(=O)N[C@@H](CCC(N)=O)C(=O)NC(C)(C)C(=O)N[C@@H](CCCCNC(=O)COCCOCCNC(=O)COCCOCCNC(=O)CC[C@H](NC(=O)CCCCCCCCCOc1ccc(C(=O)O)cc1)C(=O)O)C(=O)N[C@@H](Cc1ccccc1)C(=O)N[C@H](C(=O)N[C@H](CCC(=O)O)C(=O)N[C@@](C)(Cc1ccc(O)cc1)C(=O)N[C@@H](CC(C)C)C(=O)N[C@H](C(=O)N[C@@H](CCCCNC(=O)COCCOCCNC(=O)COCCOCCNC(=O)CC[C@H](NC(=O)CCCCCCCCCOc1ccc(C(=O)O)cc1)C(=O)O)C(=O)NCC(=O)NCC(=O)N1CCC[C@H]1C(=O)N[C@@H](CO)C(=O)N[C@@H](CO)C(=O)NCC(=O)N[C@@H](C)C(=O)N1CCC[C@H]1C(=O)N1CCC[C@H]1C(=O)N1CCC[C@H]1C(=O)N[C@@H](CO)C(N)=O)[C@@H](C)CC)[C@@H](C)CC)[C@@H](C)CC)[C@@H](C)CC [Example 333] | 100% | 109% | 0.0062 nM | > 9950 nM | > 9950 nM | 93.3% | 0.388 nM | – | – | – | – | – | – | – | – | – | –
CCCCCCCCCCCC(=O)N[C@@H](CCC(=O)NCCOCCOCC(=O)NCCOCCOCC(=O)NCCCC[C@H](NC(=O)[C@H](CCCN)NC(=O)[C@H](CC(=O)O)NC(=O)[C@H](CC(C)C)NC(=O)[C@](C)(CC(C)C)NC(=O)[C@@H](NC(=O)[C@H](CO)NC(=O)[C@H](CCc1ccc(O)cc1)NC(=O)[C@H](CC(=O)O)NC(=O)[C@H](CO)NC(=O)[C@@H](NC(=O)[C@](C)(Cc1ccccc1F)NC(=O)[C@@H](NC(=O)CNC(=O)[C@H](CCC(=O)O)NC(=O)C(C)(C)NC(=O)[C@@H](N)Cc1ccc(O)cc1)[C@@H](C)O)[C@@H](C)O)[C@@H](C)CC)C(=O)N[C@@H](C)C(=O)N[C@@H](CCC(N)=O)C(=O)NC(C)(C)C(=O)N[C@@H](CCC(=O)O)C(=O)N[C@@H](Cc1ccccc1)C(=O)N[C@H](C(=O)N[C@H](CCC(=O)O)C(=O)N[C@@](C)(Cc1ccc(O)cc1)C(=O)N[C@@H](CC(C)C)C(=O)N[C@H](C(=O)N[C@@H](CCCCNC(=O)COCCOCCNC(=O)COCCOCCNC(=O)CC[C@H](NC(=O)CCCCCCCCCCC)C(=O)O)C(=O)NCC(=O)NCC(=O)N1CCC[C@H]1C(=O)N[C@@H](CO)C(=O)N[C@@H](CO)C(=O)NCC(=O)N[C@@H](C)C(=O)N1CCC[C@H]1C(=O)N1CCC[C@H]1C(=O)N1CCC[C@H]1C(=O)N[C@@H](CO)C(N)=O)[C@@H](C)CC)[C@@H](C)CC)C(=O)O [Example 335] | – | – | – | – | – | – | – | 85.2% | 1.04 nM | > 9950 nM | > 9950 nM | 113% | 0.175 nM | 12.3 nM | – | – | –
CC[C@H](C)[C@H](NC(=O)[C@H](CC(C)C)NC(=O)[C@](C)(Cc1ccc(O)cc1)NC(=O)[C@@H](CCC(=O)O)NC(=O)[C@@H](NC(=O)[C@H](Cc1ccccc1)NC(=O)[C@H](CCCCNC(=O)COCCOCCNC(=O)CC[C@H](NC(=O)CCCCCCCCCCCCC(=O)O)C(=O)O)NC(=O)C(C)(C)NC(=O)[C@H](CCC(N)=O)NC(=O)[C@H](C)NC(=O)[C@H](CCCCNC(=O)COCCOCCNC(=O)CC[C@H](NC(=O)CCCCCCCCCCCCC(=O)O)C(=O)O)NC(=O)[C@H](CCCN)NC(=O)[C@H](CC(=O)O)NC(=O)[C@H](CC(C)C)NC(=O)[C@](C)(CC(C)C)NC(=O)[C@@H](NC(=O)C(C)(C)NC(=O)[C@H](Cc1ccncc1)NC(=O)[C@H](CC(=O)O)NC(=O)[C@H](CO)NC(=O)[C@@H](NC(=O)[C@](C)(Cc1ccccc1F)NC(=O)[C@@H](NC(=O)CNC(=O)[C@H](CCC(=O)O)NC(=O)C(C)(C)NC(=O)[C@@H](N)Cc1ccc(O)cc1)[C@@H](C)O)[C@@H](C)O)[C@@H](C)CC)[C@@H](C)CC)C(=O)N[C@@H](CCC(=O)O)C(=O)NCC(=O)NCC(=O)N1CCC[C@H]1C(=O)N[C@@H](CO)C(=O)N[C@@H](CO)C(=O)NCC(=O)N[C@@H](C)C(=O)N1CCC[C@H]1C(=O)N1CCC[C@H]1C(=O)N1CCC[C@H]1C(=O)N[C@@H](CO)C(N)=O [Example 336] | – | – | – | – | – | – | – | 94.6% | 2.92 nM | > 10100 nM | > 10100 nM | – | 0.338 nM | – | 109% | 0.0136 nM | –
CC[C@H](C)[C@H](NC(=O)[C@H](CCCN)NC(=O)[C@H](CC(=O)O)NC(=O)[C@H](CC(C)C)NC(=O)[C@](C)(CC(C)C)NC(=O)[C@@H](NC(=O)C(C)(C)NC(=O)[C@H](Cc1ccncc1)NC(=O)[C@H](CC(=O)O)NC(=O)[C@H](CO)NC(=O)[C@@H](NC(=O)[C@](C)(Cc1ccccc1F)NC(=O)[C@@H](NC(=O)CNC(=O)[C@H](CCC(=O)O)NC(=O)C(C)(C)NC(=O)[C@@H](N)Cc1ccc(O)cc1)[C@@H](C)O)[C@@H](C)O)[C@@H](C)CC)C(=O)N[C@@H](C)C(=O)N[C@@H](CCC(N)=O)C(=O)NC(C)(C)C(=O)N[C@@H](CCC(=O)O)C(=O)N[C@@H](Cc1ccccc1)C(=O)N[C@H](C(=O)N[C@@H](CCCCNC(=O)COCCOCCNC(=O)CC[C@H](NC(=O)CCCCCCCCCCCCC(=O)O)C(=O)O)C(=O)N[C@@](C)(Cc1ccc(O)cc1)C(=O)N[C@@H](CC(C)C)C(=O)N[C@H](C(=O)N[C@@H](CCCCNC(=O)COCCOCCNC(=O)CC[C@H](NC(=O)CCCCCCCCCCCCC(=O)O)C(=O)O)C(=O)NCC(=O)NCC(=O)N1CCC[C@H]1C(=O)N[C@@H](CO)C(=O)N[C@@H](CO)C(=O)NCC(=O)N[C@@H](C)C(=O)N1CCC[C@H]1C(=O)N1CCC[C@H]1C(=O)N1CCC[C@H]1C(=O)N[C@@H](CO)C(N)=O)[C@@H](C)CC)[C@@H](C)CC [Example 339] | – | – | – | – | – | – | – | 87.3% | – | > 10100 nM | > 10100 nM | 113% | 0.308 nM | – | – | 0.019 nM | 115%
